The results in this text go back to ChEMBL document CHEMBL2311409, “Design, synthesis and biological evaluation of coumarin alkylamines as potent and selective dual binding site inhibitors of acetylcholinesterase” (Bioorg Med Chem, 2013).

The target of test [1] is Cholinesterase (Equus caballus, UniProt P81908).
Description: Inhibition of equine butyrylcholinesterase using butyrylthiocholine as substrate incubated for 20 mins prior to substrate addition measured after 3 mins by Ellman's method
The target in test [2] is T1, Acetylcholinesterase (Bos taurus, UniProt P23795).
T1 sequence (P23795 whole entry): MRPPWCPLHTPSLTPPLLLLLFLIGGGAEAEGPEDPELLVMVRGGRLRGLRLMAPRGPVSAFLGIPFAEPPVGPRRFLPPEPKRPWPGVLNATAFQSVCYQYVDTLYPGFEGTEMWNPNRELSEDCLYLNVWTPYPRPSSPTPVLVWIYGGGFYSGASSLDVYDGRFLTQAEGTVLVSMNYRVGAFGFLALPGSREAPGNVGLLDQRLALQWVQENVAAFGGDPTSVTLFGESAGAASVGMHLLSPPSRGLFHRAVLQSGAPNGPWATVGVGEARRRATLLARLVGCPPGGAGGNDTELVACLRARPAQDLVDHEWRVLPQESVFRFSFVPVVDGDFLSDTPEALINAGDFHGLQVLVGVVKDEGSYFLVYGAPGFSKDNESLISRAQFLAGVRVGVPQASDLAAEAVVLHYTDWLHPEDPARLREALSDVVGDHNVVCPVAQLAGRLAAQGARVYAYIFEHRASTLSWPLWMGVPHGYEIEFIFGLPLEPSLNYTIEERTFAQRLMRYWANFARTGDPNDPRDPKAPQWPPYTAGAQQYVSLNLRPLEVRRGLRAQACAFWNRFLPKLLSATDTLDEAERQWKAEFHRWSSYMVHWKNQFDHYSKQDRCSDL
Description: Inhibition of bovine acetylcholinesterase using acetylcholine iodide as substrate incubated for 20 mins prior to substrate addition measured after 3 mins by Ellman's method

For test [3], the target named is Cholinesterase (Equus caballus) (UniProt P81908). The test can be described thus: Inhibition of equine butyrylcholinesterase using butyrylthiocholine as substrate at 10 uM incubated for 20 mins prior to substrate addition measured after 3 mins by Ellman's method.
Sequence of Cholinesterase (Equus caballus) (P81908 whole entry): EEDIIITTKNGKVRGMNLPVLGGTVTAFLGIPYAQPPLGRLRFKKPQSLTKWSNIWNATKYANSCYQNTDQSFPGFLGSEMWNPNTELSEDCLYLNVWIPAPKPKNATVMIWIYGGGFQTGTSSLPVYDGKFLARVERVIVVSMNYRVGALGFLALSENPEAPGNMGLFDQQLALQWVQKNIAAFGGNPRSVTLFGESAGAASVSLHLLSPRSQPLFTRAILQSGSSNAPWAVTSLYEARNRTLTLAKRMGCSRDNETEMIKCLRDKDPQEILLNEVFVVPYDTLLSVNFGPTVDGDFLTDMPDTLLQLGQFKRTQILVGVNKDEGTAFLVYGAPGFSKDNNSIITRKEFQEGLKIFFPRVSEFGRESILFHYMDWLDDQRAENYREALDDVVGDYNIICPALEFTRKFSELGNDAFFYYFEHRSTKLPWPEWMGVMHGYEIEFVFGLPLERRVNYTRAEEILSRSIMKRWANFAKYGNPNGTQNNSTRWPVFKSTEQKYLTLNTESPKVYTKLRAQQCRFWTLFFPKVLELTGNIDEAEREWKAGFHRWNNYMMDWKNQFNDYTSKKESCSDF
The target in test [4] is Acetylcholinesterase (Homo sapiens, UniProt P22303). The experiment in a line: Inhibition of human acetylcholinesterase.
Sequence of Acetylcholinesterase (Homo sapiens, UniProt P22303) (P22303 whole entry): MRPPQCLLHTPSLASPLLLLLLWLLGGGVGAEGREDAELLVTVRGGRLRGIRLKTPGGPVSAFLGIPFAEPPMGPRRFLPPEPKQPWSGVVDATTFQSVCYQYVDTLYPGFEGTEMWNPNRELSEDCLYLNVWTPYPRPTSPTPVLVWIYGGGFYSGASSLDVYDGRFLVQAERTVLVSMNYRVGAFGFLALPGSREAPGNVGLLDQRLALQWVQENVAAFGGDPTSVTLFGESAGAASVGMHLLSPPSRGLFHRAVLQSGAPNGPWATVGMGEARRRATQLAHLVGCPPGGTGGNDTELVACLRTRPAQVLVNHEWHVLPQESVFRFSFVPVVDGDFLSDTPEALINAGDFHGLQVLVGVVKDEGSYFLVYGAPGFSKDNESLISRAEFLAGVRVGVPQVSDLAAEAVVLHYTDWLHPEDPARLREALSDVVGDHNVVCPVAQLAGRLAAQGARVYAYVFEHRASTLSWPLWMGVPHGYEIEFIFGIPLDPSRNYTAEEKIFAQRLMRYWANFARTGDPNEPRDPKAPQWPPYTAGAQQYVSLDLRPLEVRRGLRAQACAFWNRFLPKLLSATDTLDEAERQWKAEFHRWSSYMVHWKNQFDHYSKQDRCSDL
Test [5] deals with T1, Acetylcholinesterase. The test can be described thus: Mixed-type reversible inhibition of bovine acetylcholinesterase using S-acetylthiocholine as substrate incubated for 20 mins prior to substrate addition measured after 3 mins by Lineweaver-Burk plot analysis.

pIC50, pKi: −log10 of the molar value.

Sequence of Cholinesterase (P81908 whole entry): as the sequence (P81908 whole entry) above

In the case of `CN(CCCOc1cc2ccccc2oc1=O)Cc1ccccc1`, the pIC50 in test [1] was 5.40; in test [2], 5.35.
Consider `COc1cc2cc(C(=O)NCCCCN(C)Cc3ccccc3)c(=O)oc2cc1OC`, for which the inhibition in test [3] was 23%. The pIC50 in test [2] is 7.68.
Taken in the same sequence, the figures for `CN(CCC(=O)Nc1cc2ccccc2oc1=O)Cc1ccccc1` were 0% and 4.18.
As to `O=c1oc2ccccc2cc1OC1CCN(Cc2ccccc2)CC1`, the negative logarithm of the IC50 (pIC50) is 5.10 in test [1] and 5.35 in test [2].
On to `COc1ccc2oc(=O)c(OC3CCN(Cc4ccccc4)CC3)cc2c1`, for which, in test [3], the inhibition amounted to 34%. This compound gave a pIC50 in test [2] of 5.13.
The like results for `COc1cc2cc(C(=O)NCCN(C)Cc3ccccc3)c(=O)oc2cc1OC` were, in that order, 15% and 5.05.
In test [3], `COc1cc2cc(C(=O)N3CCN(Cc4ccccc4)CC3)c(=O)oc2cc1OC` had an inhibition of 12%. Also, the pIC50 in test [2] was 5.40.
Compound `COc1cc2cc(C(=O)NCCCN(C)Cc3ccccc3)c(=O)oc2cc1OC` came in with an inhibition in test [3] of 24%. The compound also had a pIC50 in test [2] of 7.07.
Regarding `COc1cc2cc(OCC3CCN(Cc4ccccc4)CC3)c(=O)oc2cc1OC`, the values for the pIC50 in test [1] and in test [2] were 5.41 and 7.68, respectively.
Take `COc1cc2cc(OC3CCN(Cc4ccccc4)CC3)c(=O)oc2cc1OC`: in test [3], the inhibition amounted to 36%. In test [2], the pIC50 is 5.82.
Taken in the same sequence, the figures for `COc1cc2cc(NC(=O)CCCN(C)Cc3ccccc3)c(=O)oc2cc1OC` were 43% and 6.48.
For `COc1cc2cc(NC(=O)[C@H]3CCC[C@@H](NCc4ccccc4)C3)c(=O)oc2cc1OC` (relative stereo), the negative-log IC50 (pIC50) in test [4] is 7.37; in test [1] it was 4.48; in test [2], 8.12. In test [5], this compound showed a negative logarithm of the Ki (pKi) of 8.07.
In the case of `COc1cc2cc(C(=O)NC3CCN(Cc4ccccc4)CC3)c(=O)oc2cc1OC`, the inhibition in test [3] is 19%. This compound also gave a pIC50 in test [2] of 7.55.
As for `COc1cc2cc(C(=O)OCC3CCN(Cc4ccccc4)CC3)c(=O)oc2cc1OC`, the pIC50 was 5.33 in test [1] and 7.14 in test [2].
For the compound `COc1cc2cc(C(=O)OC3CCN(Cc4ccccc4)CC3)c(=O)oc2cc1OC`, in test [3], the inhibition was found to be 12%. The pIC50 in test [2] was 7.85.
The like results for `COc1cc2cc(C(=O)OCCCN(C)Cc3ccccc3)c(=O)oc2cc1OC` were, in that order, 38% and 6.95.
Taken in the same sequence, the figures for `COc1cc2cc(NC(=O)CN(C)Cc3ccccc3)c(=O)oc2cc1OC` were 11% and 4.59.
The like results for `COc1cc2cc(NC(=O)CCN(C)Cc3ccccc3)c(=O)oc2cc1OC` were, in that order, 0% and 4.85.
The compound `COc1ccc2cc(OC3CCN(Cc4ccccc4)CC3)c(=O)oc2c1` returned an inhibition in test [3] of 46%. Also, the pIC50 in test [2] was 4.92.
